The record followed here is US9920040B2, “GPR40 agonists for the treatment of type II diabetes” (Janssen Pharmaceutica NV, priority 2015, dated 2018).

One assay addresses T1, human GPR40 (Homo sapiens, UniProt O14842).
T1 construct: expressed in transfected cells
Kind of assay: GPR40 calcium flux assay, human GPR40. The class given is cell-based. The following applies: transfected HEK293 cells stably expressing human GPR40; multiple values = repeated testing; read-out: hGPR40 Ca^2+ Assay EC50. As for the experimental part:
(§1) Compounds were tested in a calcium flux assay using transfected HEK293 cells stably expressing either human GPR40 or rat GPR40. Human GPR40 expressing cells were cultured in DMEM-High Glucose media supplemented with 10% fetal bovine serum, 1×L-Glutamine, 1×Penicillin/Streptomycin and 500 μg/mL G418. Rat GPR40 expressing cells were cultured in DMEM-High Glucose media supplemented with 10% fetal bovine serum and 1 μg/mL puromycin. Cells were plated into poly-D-lysine coated 384-well plates and cultured overnight in a 37° C. humidified tissue culture incubator under 5% CO2/[…] atmosphere. On the day of the experiment, the culture media was replaced with assay buffer (HBSS, 20 mM HEPES, 0.1% BSA) and the cells incubated at 37° C. for 1 h. Calcium-sensitive fluorescent dye (Fluo 8 No-Wash Calcium Dye, ABD Bioquest) was then added and the cells incubated for another 30 min at 37° C. followed by 15 min at room temperature while protected from the light. The cell plate and a plate of diluted compounds of Formula (I) were loaded into a fluorescent plate reader that added compounds onto the cells while measuring the fluorescence intensity of each well. The plate reader recorded fluorescence intensity at 1 second intervals for 8 min and provided the data for analysis in an Excel format. EC50 values were calculated using Prism (GraphPad) software.
For orientation: A change in cytosolic calcium serves as a functional read-out for many receptors and channels.

A further assay has as its target T2, rat GPR40 (Rattus norvegicus, UniProt Q8K3T4).
T2 construct: expressed in transfected cells
Kind of assay: GPR40 calcium flux assay, rat GPR40. The class given is cell-based. The following applies: transfected HEK293 cells stably expressing rat GPR40; multiple values = repeated testing; read-out: rGPR40 Ca^2+ Assay EC50. As for the experimental part:
as §1

Usually EC50 stands for the concentration at which the effect is half-maximal.

Values joined by “and” are separate entries in the source; they are usually repeats but may differ in a detail not shown here. Identical values can stand only once.

T2 sequence (Q8K3T4 whole entry): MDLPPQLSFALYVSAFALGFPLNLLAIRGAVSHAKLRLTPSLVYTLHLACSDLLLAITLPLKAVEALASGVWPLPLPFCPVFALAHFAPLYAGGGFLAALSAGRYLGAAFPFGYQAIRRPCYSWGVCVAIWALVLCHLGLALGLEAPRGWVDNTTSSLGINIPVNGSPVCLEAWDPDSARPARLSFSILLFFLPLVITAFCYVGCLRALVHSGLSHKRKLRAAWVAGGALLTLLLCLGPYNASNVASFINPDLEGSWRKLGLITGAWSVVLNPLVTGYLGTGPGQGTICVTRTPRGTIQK
T1 sequence (O14842 whole entry): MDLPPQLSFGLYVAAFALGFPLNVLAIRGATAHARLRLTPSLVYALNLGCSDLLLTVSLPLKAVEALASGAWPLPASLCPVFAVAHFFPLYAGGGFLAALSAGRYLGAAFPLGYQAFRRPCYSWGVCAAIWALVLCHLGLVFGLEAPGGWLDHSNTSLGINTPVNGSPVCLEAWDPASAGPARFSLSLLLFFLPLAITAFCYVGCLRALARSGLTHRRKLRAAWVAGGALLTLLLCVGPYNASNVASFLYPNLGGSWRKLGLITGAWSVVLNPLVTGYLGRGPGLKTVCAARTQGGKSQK

`COc1cc(-c2onc(COc3cccc([C@@H](CC(=O)O)C4CC4)c3)c2OC2CC(C)(C)C(C)(C)C2)c(F)cn1` [Cpd 4, (3S)-3-cyclopropyl-3-[3-[[5-(5-fluoro-2-methoxy-4-pyridyl)-4-(3,3,4,4-tetramethylcyclopentoxy)isoxazol-3-yl]methoxy]phenyl]propanoic acid]: the EC50 is 5 nM on human GPR40 and 10 nM on rat GPR40.

With `COc1cc(-c2onc(COc3cccc([C@@H](CC(=O)O)C4CC4)c3)c2OCC2CC(C)(C)C2)c(F)cn1` [Cpd 8, (3S)-3-cyclopropyl-3-[3-[[4-[(3,3-dimethylcyclobutyl)methoxy]-5-(5-fluoro-2-methoxy-4-pyridyl)isoxazol-3-yl]methoxy]phenyl]propanoic acid], the concentration for a half-maximal effect (EC50) on human GPR40 was 113 nM and 103 nM and 27 nM; on rat GPR40, 44 nM and 144 nM and 143 nM.

`COc1ccc(F)c(-c2onc(COc3cccc([C@@H](CC(=O)O)C4CC4)c3)c2OC2CC(C)(C)C(C)(C)C2)c1` [Cpd 1, (3S)-3-cyclopropyl-3-[3-[[5-(2-fluoro-5-methoxy-phenyl)-4-(3,3,4,4-tetramethylcyclopentoxy)isoxazol-3-yl]methoxy]phenyl]propanoic acid]: the results for the EC50 at human GPR40 and on rat GPR40 were 3 nM and 6 nM, respectively.

As to `COc1ccc(F)c(-c2onc(COc3cccc([C@@H](CC(=O)O)C4CC4)c3)c2OCC2CC(C)(C)C2)c1` [Cpd 5, (3S)-3-cyclopropyl-3-[3-[[4-[(3,3-dimethylcyclobutyl)methoxy]-5-(2-fluoro-5-methoxy-phenyl)isoxazol-3-yl]methoxy]phenyl]propanoic acid], the EC50 on human GPR40 was 37 nM and 35 nM and 6 nM; on rat GPR40, 69 nM and 46 nM and 56 nM.

As to `COc1ccc(F)c(-c2scc(COc3cccc([C@@H](CC(=O)O)C4CC4)c3)c2C(C)C(F)(F)F)c1` (stereo partly drawn) [Cpd 19, (3S)-3-cyclopropyl-3-[3-[[5-(2-fluoro-5-methoxy-phenyl)-4-(2,2,2-trifluoro-1-methyl-ethyl)-3-thienyl]methoxy]phenyl]propanoic acid], the 50% effective concentration (EC50) on human GPR40 was 253 nM and 128 nM.

With `COc1ccc(-c2scc(COc3cccc([C@@H](CC(=O)O)C4CC4)c3)c2C2=CCCC2(C)C)c(F)c1` [Cpd 18, (3S)-3-cyclopropyl-3-[3-[[4-(5,5-dimethylcyclopenten-1-yl)-5-(2-fluoro-4-methoxy-phenyl)-3-thienyl]methoxy]phenyl]propanoic acid], the EC50 on human GPR40 is 305 nM and 152 nM.

Regarding `CC1(C)CCC=C1c1c(COc2cccc([C@@H](CC(=O)O)C3CC3)c2)csc1-c1ccccc1` [Cpd 20, (3S)-3-cyclopropyl-3-[3-[[4-(5,5-dimethylcyclopenten-1-yl)-5-phenyl-3-thienyl]methoxy]phenyl]propanoic acid], the concentration giving a half-maximal response (EC50) on human GPR40 was 79 nM and 71 nM.

Take `COc1cc(-c2scc(COc3cccc([C@@H](CC(=O)O)C4CC4)c3)c2C2=CCCC2(C)C)c2ccsc2c1` [Cpd 10, (3S)-3-cyclopropyl-3-[3-[[4-(5,5-dimethylcyclopenten-1-yl)-5-(6-methoxybenzothiophen-4-yl)-3-thienyl]methoxy]phenyl]propanoic acid]: the EC50 at human GPR40 was 53 nM and 35 nM and 34 nM; on rat GPR40, 91 nM and 89 nM.

On to `COc1ccc(F)c(-c2onc(COc3cccc([C@@H](CC(=O)O)C4CC4)c3)c2-c2ccc(C(C)(C)C)s2)c1` [Cpd 45, (3S)-3-[3-[[4-(5-tert-butyl-2-thienyl)-5-(2-fluoro-5-methoxy-phenyl)isoxazol-3-yl]methoxy]phenyl]-3-cyclopropyl-propanoic acid], for which the half-maximal effective concentration (EC50) at human GPR40 is 23 nM and 21 nM.

Turning to `COc1cc(-c2onc(COc3cccc([C@@H](CC(=O)O)C4CC4)c3)c2C=C(C)C)c(F)cn1` [Cpd 52, (3S)-3-cyclopropyl-3-[3-[[5-(5-fluoro-2-methoxy-4-pyridyl)-4-(2-methylprop-1-enyl)isoxazol-3-yl]methoxy]phenyl]propanoic acid], at human GPR40, the concentration giving a half-maximal response (EC50) was 51 nM and 45 nM.

For `COc1ccc(F)c(-c2onc(COc3cccc([C@@H](CC(=O)O)C4CC4)c3)c2OC(C)C)c1` [Cpd 42, (3S)-3-cyclopropyl-3-[3-[[5-(2-fluoro-5-methoxy-phenyl)-4-isopropoxy-isoxazol-3-yl]methoxy]phenyl]propanoic acid], on human GPR40, the EC50 was 19 nM and 15 nM.

As to `COc1ccc(F)c(-c2onc(COc3cccc([C@@H](CC(=O)O)C4CC4)c3)c2-c2ccc(C)s2)c1` [Cpd 32, (3S)-3-cyclopropyl-3-[3-[[5-(2-fluoro-5-methoxy-phenyl)-4-(5-methyl-2-thienyl)isoxazol-3-yl]methoxy]phenyl]propanoic acid], the EC50 on human GPR40 is 31 nM and 27 nM.

As to `CC1(C)CCC=C1c1c(COc2cccc([C@@H](CC(=O)O)C3CC3)c2)csc1-c1ccccc1F` [Cpd 21, (3S)-3-cyclopropyl-3-[3-[[4-(5,5-dimethylcyclopenten-1-yl)-5-(2-fluorophenyl)-3-thienyl]methoxy]phenyl]propanoic acid], at human GPR40, the EC50 was 110 nM and 66 nM.

Turning to `COc1cc(-c2onc(COc3cccc([C@@H](CC(=O)O)C4CC4)c3)c2OC2CC(C)(C)CC(C)(C)C2)c(F)cn1` [Cpd 2, (3S)-3-cyclopropyl-3-[3-[[5-(5-fluoro-2-methoxy-4-pyridyl)-4-(3,3,5,5-tetramethylcyclohexoxy)isoxazol-3-yl]methoxy]phenyl]propanoic acid], the concentration for a half-maximal effect (EC50) on human GPR40 was 5 nM; on rat GPR40, 9 nM.

`CC1(C)CCC=C1c1c(COc2cccc([C@@H](CC(=O)O)C3CC3)c2)csc1-c1cccc2[nH]ccc12` [Cpd 24, (3S)-3-cyclopropyl-3-[3-[[4-(5,5-dimethylcyclopenten-1-yl)-5-(1H-indol-4-yl)-3-thienyl]methoxy]phenyl]propanoic acid]: the half-maximal effective concentration (EC50) on human GPR40 is 68 nM and 66 nM.

Take `COc1ccc(F)c(-c2onc(COc3cccc([C@@H](CC(=O)O)C4CC4)c3)c2OC2CCCCC2)c1` [Cpd 46, (3S)-3-[3-[[4-(cyclohexoxy)-5-(2-fluoro-5-methoxy-phenyl)isoxazol-3-yl]methoxy]phenyl]-3-cyclopropyl-propanoic acid]: the EC50 at human GPR40 was 7 nM and 5 nM.

As for `COc1ccc(F)c(-c2onc(COc3cccc([C@@H](CC(=O)O)C4CC4)c3)c2OC2CC(C)(C)CC(C)(C)C2)c1` [Cpd 3, (3S)-3-cyclopropyl-3-[3-[[5-(2-fluoro-5-methoxy-phenyl)-4-(3,3,5,5-tetramethylcyclohexoxy)isoxazol-3-yl]methoxy]phenyl]propanoic acid], the EC50 at human GPR40 is 5 nM.

Take `COc1ccc(F)c(-c2onc(CCc3cccc(C(CC(=O)O)C4CC4)c3)c2C2CC2)c1` (stereo not shown) [Cpd 7, 3-cyclopropyl-3-[3-[2-[4-cyclopropyl-5-(2-fluoro-5-methoxy-phenyl)isoxazol-3-yl]ethyl]phenyl]propanoic acid]: the EC50 at human GPR40 was found to be 24 nM; on rat GPR40, 69 nM.

Take `COc1ccc(F)c(-c2onc(COc3cccc([C@@H](CC(=O)O)C4CC4)c3)c2OC2CCC2)c1` [Cpd 43, (3S)-3-[3-[[4-(cyclobutoxy)-5-(2-fluoro-5-methoxy-phenyl)isoxazol-3-yl]methoxy]phenyl]-3-cyclopropyl-propanoic acid]: on human GPR40, the half-maximal effective concentration (EC50) is 11 nM and 9 nM.

`COc1cc(-c2onc(COc3cccc([C@@H](CC(=O)O)C4CC4)c3)c2OC2CCCCC2)c(F)cn1` [Cpd 48, (3S)-3-[3-[[4-(cyclohexoxy)-5-(5-fluoro-2-methoxy-4-pyridyl)isoxazol-3-yl]methoxy]phenyl]-3-cyclopropyl-propanoic acid]: the concentration giving a half-maximal response (EC50) at human GPR40 was 24 nM and 21 nM.

For `COc1ccc(F)c(-c2onc(COc3cc(C(CC(=O)O)C4CC4)c(Cl)cn3)c2C2=CCCC2(C)C)c1` (stereo not shown) [Cpd 9, 3-[5-chloro-2-[[4-(5,5-dimethylcyclopenten-1-yl)-5-(2-fluoro-5-methoxy-phenyl)isoxazol-3-yl]methoxy]-4-pyridyl]-3-cyclopropyl-propanoic acid], the concentration giving a half-maximal response (EC50) at human GPR40 is 53 nM; at rat GPR40, 138 nM.

Turning to `CN(C)c1cccc(-c2scc(COc3cccc([C@@H](CC(=O)O)C4CC4)c3)c2C2=CCCC2(C)C)c1` [Cpd 17, (3S)-3-cyclopropyl-3-[3-[[5-[3-(dimethylamino)phenyl]-4-(5,5-dimethylcyclopenten-1-yl)-3-thienyl]methoxy]phenyl]propanoic acid], the half-maximal effective concentration (EC50) at human GPR40 was 242 nM and 232 nM.

As for `CCOc1c(COc2cccc([C@@H](CC(=O)O)C3CC3)c2)noc1-c1cc(OC)ncc1F` [Cpd 51, (3S)-3-cyclopropyl-3-[3-[[4-ethoxy-5-(5-fluoro-2-methoxy-4-pyridyl)isoxazol-3-yl]methoxy]phenyl]propanoic acid], the 50% effective concentration (EC50) on human GPR40 is 180 nM and 140 nM.

With `COc1ccc(F)c(-c2scc(COc3cccc([C@@H](CC(=O)O)C4CC4)c3)c2C2CC2)c1` [Cpd 14, (3S)-3-cyclopropyl-3-[3-[[4-cyclopropyl-5-(2-fluoro-5-methoxy-phenyl)-3-thienyl]methoxy]phenyl]propanoic acid], the EC50 at human GPR40 was 108 nM and 89 nM.

As for `COc1cc(-c2onc(COc3cccc([C@@H](CC(=O)O)C4CC4)c3)c2CC(C)C)c(F)cn1` [Cpd 12, (3S)-3-cyclopropyl-3-[3-[[5-(5-fluoro-2-methoxy-4-pyridyl)-4-isobutyl-isoxazol-3-yl]methoxy]phenyl]propanoic acid], at human GPR40, the EC50 stood at 1270 nM.

Regarding `COc1cccc(-c2scc(COc3cccc([C@@H](CC(=O)O)C4CC4)c3)c2C2=CCCC2(C)C)c1` [Cpd 26, (3S)-3-cyclopropyl-3-[3-[[4-(5,5-dimethylcyclopenten-1-yl)-5-(3-methoxyphenyl)-3-thienyl]methoxy]phenyl]propanoic acid], the EC50 at human GPR40 was 26 nM and 24 nM.
